Structures can show the parent of a compound that is named as a salt.
Legend:
Type in all cases: in vivo
Nematospiroides dubius = assay: Oral administration to mice infected with Nematospiroides dubius; % reduction in worm numbers versus untreated infected controls; conditions: % reduction in numbers of worms vs untreated infected controls; for inhibition in vivo at 5 mg/kg / inhibition in vivo at 50 mg/kg: Heligmosomoides polygyrus
Procedure: The compounds of Examples 1 to 15 were each administered orally to mice infected with Nematospiroides dubius at various dosages. Activity was calculated as % reduction in the numbers of worms in treated as opposed to control (untreated, infected) animals.

Fluke = assay: Test to demonstrate fluke activity in an artificially infected sheep; conditions: sheep infected with 100 metacercariae, treated orally at 30 mg/kg 4-5 months later
Procedure: A sheep was artificially infected with 100 metacercariae and 4 - 5 months later was treated, orally, with 6-[3-(3-cyclohexen-1-ylcarboxamido)-phenyl7-2,3,5,6-tetrahydroimidazo [2,1-b]thiazole at 30 mg/kg.

Sheep Roundworms = assay: Activity against sheep roundworms (mixed roundworm infection)
Procedure: (§1) A single subcutaneous injection of 5 mg/kg of the laevo amide of Example 12a, as a solution of its hydrochloride (in a mixture of propylene glycol, 70%; benzyl alcohol, 4%; and made up to 100% with water), to a sheep with a mixed roundworm infection, removed >99.9% of all worms present and was 100% active against lungworm.

adult Brugia pahangi = assay: Activity against Brugia pahangi in the cat (macrofilaricidal activity); conditions: five daily doses at 5 mg/kg s.c.
Procedure: Five daily doses of the laevo amide of Example 12a administered at 5 mg/kg s.c. to a cat infected with adult Brugia pahangi was 100% effective against this parasite.

ascarids = assay: Activity against dog parasites: ascarids; conditions: single oral dose of 7.5 mg/kg
Procedure: (§2) A single oral dose of 7.5 mg/kg of the laevo amide of Example 12a to a dog was 100% effective against ascarids, hookworm and whipworm.

hookworm = assay: Activity against dog parasites: hookworm; conditions: single oral dose of 7.5 mg/kg
Procedure: as §2

lungworm = assay: Activity against lungworm in a sheep with mixed roundworm infection; conditions: single subcutaneous injection of 5 mg/kg, solution of hydrochloride
Procedure: as §1

whipworm = assay: Activity against dog parasites: whipworm; conditions: single oral dose of 7.5 mg/kg
Procedure: as §2

SMILES	inhibition in vivo at 5 mg/kg (Nematospiroides dubius; Dose 5 mg/kg) [%]	inhibition in vivo at 50 mg/kg (Nematospiroides dubius; Dose 50 mg/kg) [%]	further results
O=C(Nc1cccc(C2CN3CCSC3=N2)c1)C1CC=CCC1 (racemic) [Example 1]	55	99	activity (post-mortem fluke worm counts) (Fluke): > 95%; Fluke egg counts (Fluke; 3-4 days after dosing): zero; removal of roundworms (Sheep Roundworms; single oral dose of 15 mg/kg, aqueous solution of hydrochloride salt): removed all roundworms present
CC1(C)C=C(C(=O)Nc2cccc(C3CN4CCSC4=N3)c2)C=CC1 (stereo not shown) [Example 2, 6-[3-(3,3-dimethyl-1,5-cyclohexadien-1-ylcarboxamido)phenyl]-2,3,5,6-tetrahydroimidazo[-2,1-b]thiazole hydrochloride]	57	99	–
O=C(Nc1cccc(C2CN3CCSC3=N2)c1)C1=CCC=CC1 (stereo not shown) [Example 3]	–	–	Activity % (Nematospiroides dubius; Dose 5 mg/kg): 58%; Activity % (Nematospiroides dubius; Dose 50 mg/kg): 100%
O=C(Nc1cccc(C2CN3CCSC3=N2)c1)C1C=CCC1 (stereo not shown) [Example 4, 6-[3-(2-cyclopenten-1-ylcarboxamido)phenyl]-2,3,5,6-tetrahydroimidazo[2,1-b]thiazole]	100	100	–
O=C(Nc1cccc(C2CN3CCSC3=N2)c1)C1C=CCCC1 (stereo not shown) [Example 5]	65	100	–
O=C(Nc1cccc(C2CN3CCSC3=N2)c1)C1=CC2(CC=C1)CCCC2 (stereo not shown) [Example 6]	45	100	–
CC1C=CCCC1C(=O)Nc1cccc(C2CN3CCSC3=N2)c1 (stereo not shown) [Example 7]	55	100	–
CC1C=CCC(C(=O)Nc2cccc(C3CN4CCSC4=N3)c2)C1 (stereo not shown) [Example 8]	59	99	–
O=C(Nc1cccc(C2CN3CCSC3=N2)c1)C1=CCCCC1 (stereo not shown) [Example 9]	76	99	–
O=C(Nc1cccc(C2CN3CCSC3=N2)c1)C1=CCCCCC1 (stereo not shown) [Example 10]	90	100	–
O=C(Nc1cccc(C2CN3CCSC3=N2)c1)C1CC=CC1 (stereo not shown) [Example 11]	84	100	–
O=C(Nc1cccc(C2CN3CCSC3=N2)c1)C1=CC2(CC=CCC2)CC=C1 (stereo not shown) [Example 12]	19	94	–
O=C(Nc1cccc(C2CN3CCSC3=N2)c1)C1CC=CCC1 (stereo not drawn) [Example 14a, 6-[3-(3-cyclohexen-1-ylcarboxamido)phenyl] -2,3,5,6-tetrahydroimidazo[2,l-b]thiazole]	–	–	effective against Brugia pahangi (adult Brugia pahangi): 100%; Activity % (Nematospiroides dubius; Dose 2.5 mg/kg): 100%; Activity % (Nematospiroides dubius; Dose 10 mg/kg): 100%; effective against ascarids (ascarids): 100%; effective against hookworm (hookworm): 100%; active against lungworm (lungworm): 100%; effective against whipworm (whipworm): 100%; worms removed (Sheep Roundworms; single subcutaneous injection of 5 mg/kg, solution of hydrochloride in propylene glycol 70%/benzyl alcohol 4%/water): > 99.9%
O=C(Nc1cccc(C2CN3C=CSC3=N2)c1)C1CC=CCC1 (stereo not shown) [Example 15]	71	100	–

Reference: patent EP0046377A1, “Cycloalkenylcarboxamido derivatives of tetramisole, their preparation and use in medicine” (BEECHAM GROUP PLC, priority 1980, dated 1982)
